Test results reported in the supplement of paper PMC10307832.

Legend:
Test in all cases: relative viability (nuclei count vs DMSO), 5 days (fraction); higher = more cells survive
[1] = compound: Cc1ccc2nc(NCCN)c3ncc(C)n3c2c1 + COc1cccc2cc(-c3nc([C@H]4CC[C@H](C(=O)O)CC4)n4ncnc(N)c34)[nH]c12 [OSI-027] (partner 0.5 µM)
Method in brief: (§1)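 Lung cancer cell lines, seeded in 1536-well plates, were treated the following day by pin tool with a single drug or with five library-drug doses (not always all listed) in √10 steps on top of a fixed anchor-drug dose. Cells were fixed and nuclei stained in one step after 5 days, and nuclei were counted. Relative viability is the nuclei count for treated wells divided by that for vehicle wells, reported as medians of duplicate plates.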

[2] = compound: Cc1ccc2nc(NCCN)c3ncc(C)n3c2c1 + O=C(CCCCCCC(=O)Nc1ccccc1)NO [Vorinostat] (partner 1 µM)
Method in brief: as §1

[3] = compound: O=C(/C=C/c1ccccc1)NC(NC(=S)Nc1cccc2cccnc12)C(Cl)(Cl)Cl [Salubrinal] + CC1(C)CCC(c2ccc(Cl)cc2)=C(CN2CCN(c3ccc(C(=O)NS(=O)(=O)c4ccc(N[C@H](CCN5CCOCC5)CSc5ccccc5)c(S(=O)(=O)C(F)(F)F)c4)cc3)CC2)C1 [Navitoclax] (partner 0.5 µM)
Method in brief: as §1

[4] = compound: O=C(/C=C/c1ccccc1)NC(NC(=S)Nc1cccc2cccnc12)C(Cl)(Cl)Cl [Salubrinal] + C[C@]1(O)C[C@@H](c2nc(-c3ccc4ccc(-c5ccccc5)nc4c3)c3c(N)nccn32)C1 [Linsitinib] (partner 1 µM)
Method in brief: as §1

Cell Line | relative viability ([1]; first compound 0.04 µM) | relative viability ([1]; first compound 0.1265 µM) | relative viability ([1]; first compound 0.4 µM) | relative viability ([1]; first compound 1.265 µM) | relative viability ([1]; first compound 4 µM) | relative viability ([2]; first compound 0.04 µM) | relative viability ([2]; first compound 0.1265 µM) | relative viability ([2]; first compound 0.4 µM) | relative viability ([2]; first compound 1.265 µM) | relative viability ([2]; first compound 4 µM) | relative viability ([3]; first compound 0.08 µM) | relative viability ([3]; first compound 0.253 µM) | relative viability ([3]; first compound 0.8 µM) | relative viability ([3]; first compound 8 µM) | relative viability ([4]; first compound 0.08 µM) | relative viability ([4]; first compound 0.253 µM) | relative viability ([4]; first compound 0.8 µM) | relative viability ([4]; first compound 8 µM) | relative viability ([3]; first compound 2.53 µM) | relative viability ([4]; first compound 2.53 µM)
LCLC-97TM1 | 0.592 | 0.463 | 0.452 | 0.828 | 0.437 | 0.865 | 0.867 | 0.526 | 0.759 | 0.737 | 0.368 | 0.648 | 0.464 | 0.433 | 0.222 | 0.214 | 0.221 | 0.243 | – | –
LK-2 | 0.173 | 0.202 | 0.182 | 0.188 | 0.18 | 0.384 | 0.409 | 0.302 | 0.315 | 0.322 | 1.07 | 0.793 | 1.05 | 0.921 | 0.558 | 0.521 | 0.762 | 0.723 | 0.958 | 0.757
LOU-NH91 | 0.795 | 0.726 | 0.708 | 0.762 | 0.668 | 1.02 | 0.902 | 0.87 | 0.931 | 0.858 | 0.81 | 0.73 | 0.737 | 0.617 | 1.02 | 0.949 | 0.996 | 0.93 | 0.699 | 0.955
LU99A | 0.34 | 0.268 | 0.283 | 0.273 | 0.298 | 0.532 | 0.512 | 0.423 | 0.494 | 0.476 | 0.942 | 0.864 | 0.798 | 0.828 | 0.611 | 0.545 | 0.579 | 0.515 | 0.858 | 0.59
LXF-289 | 0.898 | 0.79 | 0.901 | 0.872 | 0.776 | 0.765 | 0.639 | 0.795 | 0.629 | 0.806 | 0.99 | 0.898 | 1.04 | 0.868 | 1.04 | 0.861 | 1.03 | 0.893 | 0.943 | 0.968
NCI-H23 | 0.828 | 0.709 | 0.54 | 0.607 | 0.531 | 0.759 | 0.654 | 0.501 | 0.493 | 0.578 | 1.01 | 0.722 | 0.91 | 1.04 | 0.576 | 0.473 | 0.516 | 0.535 | 0.759 | 0.67
NCI-H322M | 0.641 | 0.544 | 0.481 | 0.568 | 0.526 | 0.991 | 0.86 | 0.957 | 1 | 1.09 | 1.38 | 1.19 | 1.34 | 1.16 | 1.1 | 0.858 | 0.927 | 0.823 | 1.23 | 0.891
NCI-H441 | 0.615 | 0.785 | 0.684 | 0.654 | 0.581 | 0.925 | 0.822 | 0.848 | 0.806 | 0.731 | 0.437 | 0.711 | 0.642 | 0.913 | 0.663 | 0.438 | 0.643 | 0.517 | 0.678 | 0.649
NCI-H460 | 0.674 | 0.598 | 0.67 | 0.718 | 0.537 | 0.74 | 0.7 | 0.708 | 0.683 | 0.631 | 1.43 | 0.487 | 1.45 | 1.03 | 1.31 | 0.586 | 1 | 0.564 | 1.17 | 0.813
NCI-H520 | 0.301 | 0.23 | 0.263 | 0.237 | 0.305 | 0.719 | 0.725 | 0.808 | 0.674 | 0.574 | 1.16 | 1.04 | 1.32 | 1.18 | 1.16 | 0.688 | 1.25 | 1.17 | 1.11 | 1.12
NCI-H596 | 0.709 | 0.749 | 0.617 | 0.709 | 0.737 | 0.674 | 0.714 | 0.609 | 0.668 | 0.588 | 1.01 | 1.09 | 0.959 | 1.01 | 1.07 | 0.936 | 1.17 | 0.903 | 0.869 | 1.1
NCI-H647 | 0.566 | 0.607 | 0.637 | 0.634 | 0.719 | 0.691 | 0.384 | 0.571 | 0.492 | 0.328 | 1.31 | 1.12 | 1.22 | 1.03 | 1.26 | 1.26 | 1.48 | 1.27 | 1.07 | 1.07
NCI-H727 | 0.852 | 0.707 | 0.754 | 0.645 | 0.585 | 1.3 | – | 1.13 | 1.18 | 1.04 | 0.519 | 0.482 | 0.443 | 0.474 | 0.347 | 0.33 | 0.323 | 0.323 | 0.395 | 0.326
NCI-H838 | 0.462 | 0.397 | 0.445 | 0.385 | 0.398 | 0.8 | 0.685 | 0.685 | 0.708 | 0.61 | 1.35 | 1.21 | 1.22 | 1.23 | 1.25 | 0.722 | 1.08 | 0.98 | 1.15 | 1.13
NCI-H1355 | 0.447 | 0.447 | 0.335 | 0.384 | 0.404 | 0.721 | 0.599 | 0.633 | 0.634 | 0.671 | 1.02 | 1.07 | 1.07 | 0.87 | 0.976 | 0.797 | 0.856 | 0.751 | 0.949 | 0.89
NCI-H1395 | 0.672 | 0.67 | 0.558 | 0.767 | 0.655 | 0.891 | 0.765 | 0.662 | 0.651 | 0.56 | 1.08 | 1.26 | 1.12 | 1.29 | 1.31 | 1.12 | 1.09 | 1.15 | 1.06 | 0.998
